{"source": "patent US4548750A", "about": "“Pyrimido[4,5-d][2]benzazepines useful as sedatives and anxiolytic agents” (Hoffmann-La Roche Inc., priority 1983, dated 1985)", "key": {"mice": {"test_system": "mice", "experiment": "Footshock (blocking of footshock-induced fighting in pairs of mice)", "assay_type": "in vivo", "details": "Mus musculus; pairs of mice pretreated 1 hour prior to second shocking; 3 out of 3 pairs must be blocked from fighting; maximum dose 100 mg/kg", "method": "A pair of mice is confined under a one liter beaker placed on a grid which presents shock to the feet. At least 5 fighting episodes are elicited in a two-minute period. Pairs of mice are marked and pretreated 1 hour prior to a second shocking. Logarithmic dose intervals are utilized up to a maximum of 100 mg/kg. At the 100% blocking dose, 3 out of 3 pairs must be blocked from fighting."}, "male mice": {"test_system": "male mice", "experiment": "Inclined Screen (paralyzing effects causing mice to slide off the screen)", "assay_type": "in vivo", "details": "Mus musculus; groups of 6 male mice; at least 4 hours observation; maximum dose 500 mg/kg; read-out: Inclined Screen (PD50)", "method": "Groups of 6 male mice are given the test drug (maximum dose of 500 mg/kg) and then are left on the inclined screen at least 4 hours for observation of paralyzing effects severe enough to cause them to slide off the screen. If activity is observed, additional doses are taken until at least two are reached at which some, but not all of the animals slide off the screen. Doses at which mice fall off the screen due to toxicity or excitation are not included in the calculation of PD50."}, "Toxicity (LD50)": {"experiment": "Toxicity (LD50)", "details": "in vivo; PO; species not given"}, "Cats": {"test_system": "Cats", "experiment": "Unanesthetized Cat (minimum symptoms, usually ataxia)", "assay_type": "in vivo", "details": "Felis catus, po, cats treated orally", "method": "Cats are treated orally and observed for minimum symptoms--usually ataxia. One cat is used at a dose of 50 mg/kg. If activity is present, up to three cats/dose are used. Results are given as minimum effective dose."}}}
{"smiles": "Cc1nc(Cl)c2c(n1)CN=C(c1ccccc1)c1cc(Cl)ccc1-2", "note": "[1,9-Dichloro-3-methyl-7-phenyl-5H-pyrimido[4,5-d][2]benzazepine]", "values": [{"measurement": "ED100", "setting": "mice", "result": 10, "unit": "mg/kg"}, {"measurement": "ED50", "setting": "male mice", "result": 400, "unit": "mg/kg"}, {"measurement": "LD50", "setting": "Toxicity (LD50)", "result": "> 1000", "unit": "mg/kg"}, {"measurement": "minimal effective dose", "setting": "Cats", "result": 10, "unit": "mg/kg"}]}
